Results reported in the supplement of paper PMC10307832.

Assays:
Experiment in all cases: relative viability (nuclei count vs DMSO), 5 days (fraction); higher = more cells survive
[1] = compound: CC1(COc2ccc3c(c2)ncn3-c2ccc3cccc(N4CCC(N)CC4)c3n2)COC1 [Crenolanib] + CC(=O)Nc1cccc(-n2c(=O)n(C3CC3)c(=O)c3c(Nc4ccc(I)cc4F)n(C)c(=O)c(C)c32)c1 [Trametinib] (partner 0.02 µM)
Outline: (§1)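 Lung cancer cell lines in 1536-well plates were dosed by pin tool the day after seeding, either with one drug alone or with a fixed anchor-drug dose plus five library-drug doses (not always all listed) in √10 steps. After 5 days, cells were fixed and their nuclei stained in one step (final 0.05% Triton X-100, 1% formaldehyde, 1 ug/ml Hoechst), then counted on 4× images. Relative viability is the nuclei count in treated wells divided by that in vehicle wells. Values are medians of duplicate plates.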

[2] = compound: CC1(COc2ccc3c(c2)ncn3-c2ccc3cccc(N4CCC(N)CC4)c3n2)COC1 [Crenolanib] + CC(=O)c1c(C)c2cnc(Nc3ccc(N4CCNCC4)cn3)nc2n(C2CCCC2)c1=O [Palbociclib] (partner 0.5 µM)
Outline: as §1

[3] = compound: CC1(COc2ccc3c(c2)ncn3-c2ccc3cccc(N4CCC(N)CC4)c3n2)COC1 [Crenolanib] + CC1(C)CCC(c2ccc(Cl)cc2)=C(CN2CCN(c3ccc(C(=O)NS(=O)(=O)c4ccc(N[C@H](CCN5CCOCC5)CSc5ccccc5)c(S(=O)(=O)C(F)(F)F)c4)cc3)CC2)C1 [Navitoclax] (partner 0.5 µM)
Outline: as §1

[4] = compound: CC1(COc2ccc3c(c2)ncn3-c2ccc3cccc(N4CCC(N)CC4)c3n2)COC1 [Crenolanib] + C[C@]1(O)C[C@@H](c2nc(-c3ccc4ccc(-c5ccccc5)nc4c3)c3c(N)nccn32)C1 [Linsitinib] (partner 1 µM)
Outline: as §1

| Cell Line | relative viability ([1]; first compound 0.01 µM) | relative viability ([1]; first compound 0.03162 µM) | relative viability ([1]; first compound 0.1 µM) | relative viability ([1]; first compound 0.3162 µM) | relative viability ([1]; first compound 1 µM) | relative viability ([2]; first compound 0.01 µM) | relative viability ([2]; first compound 0.03162 µM) | relative viability ([2]; first compound 0.1 µM) | relative viability ([2]; first compound 0.3162 µM) | relative viability ([2]; first compound 1 µM) | relative viability ([3]; first compound 0.01 µM) | relative viability ([3]; first compound 0.03162 µM) | relative viability ([3]; first compound 0.1 µM) | relative viability ([3]; first compound 0.3162 µM) | relative viability ([3]; first compound 1 µM) | relative viability ([4]; first compound 0.01 µM) | relative viability ([4]; first compound 0.03162 µM) | relative viability ([4]; first compound 0.1 µM) | relative viability ([4]; first compound 0.3162 µM) | relative viability ([4]; first compound 1 µM) |
| --- | --- | --- | --- | --- | --- | --- | --- | --- | --- | --- | --- | --- | --- | --- | --- | --- | --- | --- | --- | --- |
| NCI-H3122 | 0.233 | 0.21 | 0.224 | 0.23 | 0.318 | 0.177 | 0.193 | 0.196 | 0.196 | 0.206 | 0.987 | 1 | 0.985 | 1.04 | 1 | 1.03 | 1 | 0.994 | 1.07 | 1.05 |
| PC-3 [JPC-3] | 0.758 |  | 0.632 | 0.623 | 0.585 | 0.563 |  | 0.543 | 0.534 | 0.568 | 0.783 | 0.788 | 0.754 | 0.841 | 0.869 | 0.965 | 0.956 | 0.899 | 0.988 | 0.887 |
| PC-14 | 0.91 | 0.619 | 0.679 | 0.716 | 0.647 | 0.489 | 0.53 | 0.473 | 0.593 | 0.354 | 1.08 | 1.01 | 0.986 | 1.11 | 0.988 | 1.07 | 0.93 | 1.03 | 1.05 | 0.93 |
| RERF-LC-KJ | 0.882 | 0.855 | 0.896 | 0.901 | 0.926 | 1.13 | 1.03 | 1.03 | 1.1 | 1.05 | 0.962 | 0.729 | 1.04 | 1.33 | 0.948 | 0.851 | 0.937 | 0.905 | 0.919 | 0.944 |
| SK-LU-1 | 0.465 | 0.517 | 0.351 | 0.491 | 0.512 | 0.368 | 0.394 | 0.328 | 0.412 | 0.333 | 0.923 | 1.02 | 0.472 | 1.05 | 0.803 | 1.09 | 0.649 | 0.869 | 1.16 | 0.809 |
| SK-MES-1 | 0.583 | 0.549 | 0.55 | 0.548 | 0.487 | 0.335 | 0.32 | 0.31 | 0.314 | 0.34 | 1.4 | 1.4 | 1.25 | 1.45 | 1.2 | 1.09 | 1.13 | 0.945 | 1.13 | 1.04 |
| SW 1573 | 0.661 | 0.607 | 0.55 | 0.726 | 0.579 | 0.369 | 0.458 | 0.422 | 0.368 | 0.42 | 1.11 | 1.17 | 0.867 | 1.03 | 1.23 | 0.873 | 0.841 | 0.704 | 0.96 | 0.81 |
| UMC-11 | 0.74 | 0.676 | 0.683 | 0.68 | 0.684 | 0.391 | 0.334 | 0.349 | 0.286 | 0.352 | 0.333 | 0.331 | 0.301 | 0.341 | 0.31 | 1.01 | 0.997 | 0.978 | 1.14 | 0.952 |
